ChEMBL document CHEMBL5500370, “Discovery of potent and novel dual NAMPT/BRD4 inhibitors for efficient treatment of hepatocellular carcinoma” (Eur J Med Chem, 2024)
Active and inactive are the calls of the source. The rule behind the calls is not given here.

Experiments:
[1] = target: Bromodomain-containing protein 4 (Homo sapiens, UniProt O60885); test: Inhibition of BRD4 BD1 (unknown origin) incubated for 120 mins by TR-FRET assay
[2] = Antiproliferative activity against human LX2 cells incubated for 120 hrs by MTT assay; assay type: toxicity, cell-based; conditions: LX-2 cells
Hep 3B2 [3] = test: Antiproliferative activity against NAMN-treated human Hep3B cells incubated for 120 hrs by MTT assay; assay type: functional, cell-based
Hep 3B2 [4] = test: Induction of apoptosis in human Hep3B cells assessed as late apoptotic cells at 5 uM measured after 72 hrs by Annexin V-FITC/PI staining based flow cytometry (reference value: 1.05 %); assay type: functional
Hep 3B2 [5] = test: Induction of cell cycle arrest at G0/G1 phase in human Hep3B cells at 10 uM measured after 72 hrs by PI/RNase staining based flow cytometry (reference value: 56.73 %); assay type: functional
Hep 3B2 [6] = test: Induction of apoptosis in human Hep3B cells assessed as necrotic cells at 10 uM measured after 72 hrs by Annexin V-FITC/PI staining based flow cytometry (reference value: 2.74 %); assay type: functional
HCCLM3 [7] = test: Antiproliferative activity against NAMN-treated human HCCLM3 cells incubated for 120 hrs by MTT assay; assay type: functional, cell-based
Hep 3B2 [8] = test: cells; conditions: Homo sapiens, Hep3B, 120 h
HCCLM3 [9] = test: Antitumor activity against human HCCLM3 cells xenografted in BALB/c nude mouse at 80 mg/kg, ip for 27 days relative to control; assay type: functional; conditions: HCCLM3, 648 h, time 27 day, read-out: TGI
[10] = target: Bromodomain testis-specific protein (Homo sapiens, UniProt Q58F21); test: Inhibition of BRDT BD1 (unknown origin) incubated for 120 mins by TR-FRET assay
Hep 3B2 [11] = test: Induction of apoptosis in human Hep3B cells assessed as necrotic cells at 1 uM measured after 72 hrs by Annexin V-FITC/PI staining based flow cytometry (reference value: 2.74 %); assay type: functional
Hep 3B2 [12] = test: Induction of apoptosis in human Hep3B cells assessed as late apoptotic cells at 10 uM measured after 72 hrs by Annexin V-FITC/PI staining based flow cytometry (reference value: 1.05 %); assay type: functional
HCCLM3 [13] = test: Antitumor activity against human HCCLM3 cells xenografted in BALB/c nude mouse assessed as tumor growth suppression administered intraperitoneally for 27 days; assay type: functional; conditions: dose 40-80 mg/kg, route ip, time 27.0 day

Cc1sc2c(c1C)C(c1ccc(Cl)cc1)=N[C@@H](CC(=O)NCCCNC(=O)/C=C/c1cccnc1)c1nnc(C)n1-2
IC50 [1]: 12 nM | IC50 at 120 h [2]: 9510 nM | Activity (Hep 3B2 [3]): inactive | Activity (Hep 3B2 [4]): 6.24% | Activity (Hep 3B2 [5]): 76.25% | Activity (Hep 3B2 [6]): 2.43% | Activity (HCCLM3 [7]): inactive | IC50 (Hep 3B2 [8]): 2370 nM | inhibition in vivo at 80 mg/kg (HCCLM3 [9]): 58.2% | IC50 [10]: 354 nM | Activity (Hep 3B2 [11]): 2.69% | Activity (Hep 3B2 [12]): 6.56% | Activity (HCCLM3 [13]): Dose-Dependent Effect
